“And” between values parts separate entries of the source, which are not always exact repeats. Equal entries are not always repeated. Where two headings read alike, the source gives them in different places.
Columns and labels:
IL-1α = molecular target: T1, IL-1α (Homo sapiens, UniProt P01583); test: TR-FRET IL-1α/hIL-1R1 receptor displacement assay; type: biochemical; conditions: read-out: TR-FRET IL-1α IC50
T1 sequence (P01583 113-271): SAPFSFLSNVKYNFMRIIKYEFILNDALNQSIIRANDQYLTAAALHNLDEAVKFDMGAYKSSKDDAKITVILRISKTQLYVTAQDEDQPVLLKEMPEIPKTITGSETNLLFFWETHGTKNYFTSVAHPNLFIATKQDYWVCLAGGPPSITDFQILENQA
Protocol: After 1 h incubation at room temperature, hIL-1R1 (1–332; Alexa 647 labeled; 50 nM final concentration) and anti-His-Europium W1024 (Perkin Elmer; Cat.No. AD0401, 1 nM final concentration) were added to a final volume of 10 μl per well. After 1 h of incubation at room temperature, time-resolved fluorescence was measured at λexc = 320 ± 20 nm, λem = 620 ± 25 nm/665 ± 25 nm using a Pherastar FSX plate reader. All experiments were run in triplicates. The data provided a typical saturation-binding curve, and the IC50 values were calculated by fitting the results to the Hill equation using Prism 7.0 and the in-house software Helios.

IL-1β [1] = molecular target: T2, IL-1β (Homo sapiens, UniProt P01584); test: protein-observed 1H-13C-HMQC NMR binding (I/Io of Leu60 Cδ1H3); parameters: Mature hIL-1β was expressed in Escherichia coli; made in house; host or cells: Escherichia coli BL21 (DE3), pET17b; conditions: for NMR I/Io values, individual experiments (Exp1-2) / NMR I/Io values, Mean: source data; for I/Io (ratio of peak intensities of Leu60 Cδ1H3 in 1H-13C-HMQC spectra in presence and absence of ligand): hIL-1β 50 µM, 500 µM compound
Protocol: ^1H–^13C- and ^1H–^15N-HMQC spectra were recorded on Bruker AVANCE 600 MHz and 800 MHz spectrometers equipped with TXI-cryocooled probeheads. In ligand binding experiments, protein concentrations were typically 50 μM in PBS, pH 7.4. Backbone assignments of hIL-1β in the ligand-bound state and unliganded state were obtained by a combination of a 3D triple resonance experiment HNCACB and a ^15N-edited NOESY spectrum, which were processed using TOPSPIN 3.2 and analyzed using CcpNmr AnalysisAssign 3.1.0[46]. ^15N-CEST experiments were run at weak B1 radiofrequency fields of 25 and 12.5 Hz on a Bruker AVANCE 800 MHz spectrometer with 113 increments and a total sweep width of 28 ppm in the pseudo-3D dimension. Peak intensities were extracted by fitting pseudo-Voigt lineshape models using peakipy (https://github.com/j-brady/peakipy). Fitted peak intensities were subsequently used to generate CEST profiles, and exchange parameters were fitted using ChemEx (https://github.com/gbouvignies/ChemEx).
Supplementary Figure 2. 13C-NMR and 19F-NMR reporter assays to monitor early
13C-HMQC spectra of hIL-1b (50 µM) were acquired in the presence (red) and absence (blue) of 500
µM compound and rows were extracted at the w1-frequency of the peak corresponding to Leu60 […]

IL-1β [2] = molecular target: T2, IL-1β; test: TR-FRET IL-1β/hIL-1R1 receptor displacement assay; type: biochemical; conditions: read-out: TR-FRET IL-1β IC50
Protocol: After 1 h incubation at room temperature, hIL-1R1 (1–332; Alexa 647 labeled; 50 nM final concentration) and anti-His-Europium W1024 (Perkin Elmer; Cat.No. AD0401, 1 nM final concentration) were added to a final volume of 10 μl per well. […] All experiments were run in triplicates.

IL-1β [3] = molecular target: T2, IL-1β; test: 19F-reporter displacement assay with (S)-1 as probe; type: binding; parameters: Mature hIL-1β was expressed in Escherichia coli; made in house; host or cells: Escherichia coli BL21 (DE3), pET17b
Protocol: Protein and reporter concentrations were 10 and 40 μM, respectively. To account for changes in sample homogeneity, samples contained 1-(2,2,2-trifluoroacetyl)piperidine-4-carboxylic acid as an internal reference for scaling signal intensities. Three concentrations of the competitor were typically measured, and the related displacement of the probe was converted into Ki-values according to Dalvit and Vulpetti[17]. […] This process was automated with FRPipe, an in-house developed Python script (https://github.com/Novartis/FRPipe) that allows for streamlined analysis of such experiments. […] For visual inspection, an overview containing relevant ^19F peaks, fitting curves, and proton spectra was plotted.
Supplementary Figure 2. 13C-NMR and 19F-NMR reporter assays to monitor early structure activity relationships of analogues of 1. a, b Early structure activity relationships monitored by protein-observed and c-f 19F-NMR reporter assays, exemplified for compound 8. a 1H-13C-HMQC spectra of hIL-1b (50 µM) were acquired in the presence (red) and absence (blue) of 500 µM compound and rows were extracted at the w1-frequency of the peak corresponding to Leu60 Cd1H3. b The degree of protein binding was estimated from the ratio I/I0, where I and I0 correspond to the signal in the presence and absence of compound, respectively. c For the assessment of the KI-values, the signal intensity of a reporter molecule (S)-1 was monitored in 19F-transverse relaxation experiments run in the absence and presence of increasing amounts of compound. d All intensities were scaled to the intensity of an internal standard (all signals in panel c and d are shifted on the X-axis for clarity). e KI-values were retrieved from theoretical binding curves calculated for each compound concentration8. f One-dimensional 1H-NMR spectra were recorded for each assay mixture to assess the structural integrity and solubility of the compound in the sample.
(1 picture or pasted object on this page, not shown here)

IL-1β [4] = molecular target: T2, IL-1β; test: SPR binding of compounds to immobilized hIL-1β; parameters: Mature hIL-1β was expressed in Escherichia coli; made in house; host or cells: Escherichia coli BL21 (DE3), pET17b
Protocol: All SPR experiments were performed with an SPR-32 instrument (Bruker Daltonics SPR, Hamburg, Germany). SPR chips were from XanTec bioanalytics GmbH (Düsseldorf, Germany).
C-terminally avi-tagged hIL-1β protein was immobilized onto a SAHC200M chip with a neutravidin-coated surface. Immobilization was performed with a protein injection of 0.02 mg/ml IL-1β diluted in PBS pH 7.5 (Gibco 70011-036, 10×), 0.05% Tween-20 for 5 min at 10 μl/min. The running buffer for binding studies of compounds was PBS pH 7.4, 0.05% Tween-20, and 2% DMSO. For the correction of small DMSO variations between samples, injections of 6 solvent samples ranging from 1% to 3% DMSO were run. Compound measurements were performed in MICK mode (multiple injection cycles kinetic) with a dose–response of 10 concentrations. Dissociation constants for compounds (KD) were obtained by determining steady-state fit that followed the 1:1 Langmuir model.
Data analysis was performed with the Sierra Analyzer 3.4.0 software from Bruker. Signal intensities were corrected for nonspecific binding to the surface by subtracting intensities from the reference surface from those of the hIL-1β surfaces (first reference subtraction) and by subtracting the buffer injection (second reference subtraction). KD values were carried out by determining a reporting point close to the end of the injection, used for steady-state fit, in addition to a kinetic fit delivering kon- and koff-values; both fitting models followed the 1:1 Langmuir equation.
Supplementary Figure 3. De termination of binding af fi nit ie s for se l ec ted ana l ogues of 1 by SPR. a - d Gr ap hs of exemplary experimen ts are given , where the sat urat ion of hI L-1b immobil ized on a chip was monitored at various concentrations of compound 3, 12, 10, and 11, respectively. Th e saturati on reached at equ ilibri um (insert) was plo tt ed versus the admini stered concentration and the equ ilibri um bin ding constant was derived from a non-li near lea st square fitting routine. e equ ilibri um and f kinetic bin ding of (S)-2 to IL-1b (kon = 1. 15 x 105 M-1 s-1 and koff = 0. 12 s-1).

[5] = 19F-reporter Ki, protein 10 μM, reporter (S)-1 40 μM
[6] = 19F-reporter, individual experiments (Exp1-58), source data
[7] = source data, read-out: SPR Kd, individual experiments (Exp1-5)
[8] = steady-state fit, 1:1 Langmuir, read-out: SPR KD

T2 sequence (P01584 117-269): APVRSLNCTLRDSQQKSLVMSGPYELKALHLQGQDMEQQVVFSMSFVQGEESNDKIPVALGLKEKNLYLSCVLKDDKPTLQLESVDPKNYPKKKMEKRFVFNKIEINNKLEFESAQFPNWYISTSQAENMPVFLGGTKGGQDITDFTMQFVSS

| Compound | IC50 (IL-1α) [µM] | binding to hIL-1β by protein-observed NMR (IL-1β [1]) | NMR I/Io values, individual experiments (Exp1-2) (IL-1β [1]) | IC50 (IL-1β [2]) [µM] | I/Io (ratio of peak intensities of Leu60 Cδ1H3 in 1H-13C-HMQC spectra in presence and absence of ligand) (IL-1β [1]) | NMR I/Io values, Mean (IL-1β [1]) | Ki (IL-1β [3]; [5]) [µM] | Ki (IL-1β [3]; [6]) | Kd (IL-1β [4]; source data, read-out: SPR Kd, Mean) [µM] | Kd (IL-1β [4]; [7]) | Kd (IL-1β [4]; [8]) [µM] |
| --- | --- | --- | --- | --- | --- | --- | --- | --- | --- | --- | --- |
| O=C1Nc2cc(C(F)(F)F)ccc2C1(O)c1cc(Cl)ccc1O (stereo not drawn) [Compound 1] | > 200 | validated as a binder by 2D NMR | 0.39 and 0.31 | – | – | – | – | – | – | – | – |
| Cc1ccc2c(c1)NC(=O)C2(O)c1cc(C(C)C)ccc1O (stereo not drawn) [Compound 3] | – | – | 0.17 and 0.21 | > 400 | 0.19 ± 0.03 (N = 2) | 0.19 | 151 ± 78 | 206 µM and 96 µM | 173 | 174 µM and 171 µM | 172 ± 2 |
| Cc1ccc2c(c1)N(C)C(=O)C2(O)c1cc(C(C)C)ccc1O (stereo not drawn) [Compound 4] | – | lack of binding | 0.94 and 1.02 | > 500 | 0.98 ± 0.06 (N = 2) | 0.98 | > 1000 | – | – | – | – |
| COc1ccc(Cl)cc1C1(O)C(=O)Nc2cc(C(F)(F)F)ccc21 (stereo not drawn) [Compound 5] | – | lack of binding | 0.95 and 1.03 | > 530 | 0.99 ± 0.06 (N = 2) | 0.99 | > 1000 | – | – | – | – |
| O=C1Nc2ccccc2C1(O)c1cc(Cl)ccc1O (stereo not drawn) [Compound 6] | – | decreases protein binding | 0.57 and 0.61 | > 500 | 0.59 ± 0.03 (N = 2) | 0.59 | > 1000 | – | – | – | – |
| O=C1Nc2cc(C(F)(F)F)ccc2C1(O)c1ccccc1O (stereo not drawn) [Compound 7] | – | decreases protein binding | 0.41 and 0.48 | > 500 | 0.45 ± 0.05 (N = 2) | – | > 1000 | – | – | – | – |
| Cc1ccc2c(c1)NC(=O)C2(O)c1cc(Cl)ccc1O (stereo not drawn) [Compound 8] | > 200 | – | 0.18 | > 200 | 0.18 ± 0.004 (N = 2) | 0.18 | 312 ± 124 | 110 µM and 195 µM and 206 µM and 210 µM and 215 µM and 223 µM and 233 µM and 254 µM (2×) and 260 µM (2×) and 120 µM and 261 µM and 262 µM and 268 µM and 278 µM and 281 µM and 282 µM and 283 µM and 287 µM and 292 µM and 293 µM and 133 µM and 295 µM and 309 µM and 317 µM and 325 µM and 331 µM (3×) and 337 µM and 338 µM and 340 µM and 162 µM and 345 µM and 362 µM and 382 µM and 387 µM and 393 µM and 395 µM and 399 µM and 427 µM and 439 µM (2×) and 164 µM and 454 µM and 456 µM and 471 µM and 475 µM and 580 µM and 600 µM and 622 µM (2×) and 86 µM and 183 µM (2×) and 184 µM (2×) | – | 312 µM (2×) and 158 µM | 261 ± 89 |
| O=C1Nc2cc(Cl)ccc2C1(O)c1cc(Cl)ccc1O (stereo not drawn) [Compound 9] | – | – | – | – | 0.3 (N = 1) | – | 172 ± 35 | 197 µM and 147 µM | – | – | – |
| Cc1ccc(O)c(C2(O)C(=O)Nc3cc(C(F)(F)F)ccc32)c1 (stereo not drawn) [Compound 13] | – | – | – | – | 0.4 (N = 1) | – | – | – | – | – | > 1000 |
| O=C1Nc2cc(C(F)(F)F)ccc2[C@@]1(O)c1cc(Cl)ccc1O [Compound (R)-1] | – | only enantiomer (S)-1 showed binding to the protein | – | – | – | – | – | – | – | – | – |
| O=C1Nc2cc(C(F)(F)F)ccc2[C@]1(O)c1cc(Cl)ccc1O [Compound (S)-1] | > 200 | – | – | – | – | – | – | – | – | – | – |
